In patent US9745335B2 (Blirt S.A., priority 2012, dated 2017):

Key:
[1] = test system: Candida albicans ATCC 10231; assay: antifungal activity in vitro, serial dilution in RPMI 1640; assay type: cell-based
In short: (§1)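 Broth serial dilution was run in buffered RPMI 1640, pH 7.0, per […] M27-A2. Growth was read as optical density at 531 nm (A531) and plotted against compound concentration.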

[2] = test system: Candida glabrata DSM 11226; assay: as above; assay type: cell-based
In short: as §1

Candida krusei DSM 6128 = assay: as above; assay type: cell-based
In short: as §1

[3] = test system: Candida lusitaniae DSM 70102; assay: as above; assay type: cell-based
In short: as §1

[4] = test system: Candida tropicalis KKP 334; assay: as above; assay type: cell-based
In short: as §1

[5] = test system: Saccharomyces cerevisiae ATCC 9763; assay: as above; assay type: cell-based; details: RPMI 1640, pH 7.0; for Antifungal activity IC50: Saccharomyces cerevisiae ATCC 9763 (first head over MIC and IC50); for Antifungal activity MIC: Saccharomyces cerevisiae ATCC 9763
In short: as §1

Human erythrocytes = assay: hemotoxicity determination (hemolytic activity); assay type: cell-based
In short: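 Human erythrocytes (2×10^7/ml in saline) were incubated with serially diluted compound for 30 min at 37 °C and then centrifuged. Released haemoglobin was read at A540 against a 0.1% Triton X-100 full-lysis control. EH50 is the interpolated concentration giving 50% of the control A540.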

[6] = test system: Aspergillus niger LOCK E201; assay: antifungal activity in vitro, broader spectrum; assay type: cell-based
Experimental: (§2) For the determination of antifungal activity in vitro we used method of serial dilution in buffered medium RPMI 1640, pH 7.0, in a 96-wells microplates, according to the standard procedure (National Committee for Clinical Laboratory Standards. Reference method for broth dilution antifungal susceptibility testing of yeast, approved standard, 2nd ed. M27-A2 vol. 22 Wayne, Pa., 2002). The optical density of cells suspension was measured using a microplates reader (Victor^3, Perkin-Elmer) at the wavelength λ=531 nm (A531). On the basis of obtained results the diagrams of relation between A531 values and concentration of examined compound were made.
(§3) Obtained results are presented below in tables 2A and 2B.

Candida albicans SC 5314 = assay: antifungal activity in vitro, broader spectrum; assay type: cell-based
Experimental: as §2, §3

Candida arborea KKP 319 = assay: antifungal activity in vitro, broader spectrum; assay type: cell-based
Experimental: as §2, §3

[7] = test system: Candida dubliniensis CBS 7987; assay: antifungal activity in vitro, broader spectrum; assay type: cell-based
Experimental: as §2, §3

[8] = test system: Candida lipolytica KKP 322; assay: antifungal activity in vitro, broader spectrum; assay type: cell-based
Experimental: as §2, §3

[9] = test system: Candida parapsilosis DSM 5784; assay: antifungal activity in vitro, broader spectrum; assay type: cell-based
Experimental: as §2, §3

[10] = test system: Candida pseudotropicalis KKP 324; assay: antifungal activity in vitro, broader spectrum; assay type: cell-based
Experimental: as §2, §3

[11] = test system: Candida quilliermondii DSM 11947; assay: antifungal activity in vitro, broader spectrum; assay type: cell-based
Experimental: as §2, §3

[12] = test system: Candida stellatoidea CBS 1905; assay: antifungal activity in vitro, broader spectrum; assay type: cell-based
Experimental: as §2, §3

[13] = test system: Trichoderma viride LOCK E159; assay: antifungal activity in vitro, broader spectrum; assay type: cell-based
Experimental: as §2, §3

[14] = test system: Candida albicans clinical strain B3; assay: antifungal activity against MDR fungal strains and parents; assay type: cell-based; details: C. albicans B3, fluconazole sensitive, parent strain for B4
Experimental: as §2

[15] = test system: Candida albicans clinical strain B4 (CaMdr1p); assay: as above; assay type: cell-based; details: C. albicans B4 (CaMdr1p), fluconazole-resistant
Experimental: as §2

[16] = test system: Candida albicans clinical strain F2; assay: as above; assay type: cell-based; details: C. albicans F2, fluconazole sensitive, parent strain for F5
Experimental: as §2

[17] = test system: Candida albicans clinical strain F5 (CaMdr1p); assay: as above; assay type: cell-based; details: C. albicans F5 (CaMdr1p), fluconazole-resistant
Experimental: as §2

[18] = test system: Candida albicans clinical strain Gu4; assay: as above; assay type: cell-based; details: C. albicans Gu4, fluconazole sensitive, parent strain for Gu5
Experimental: as §2

[19] = test system: Candida albicans clinical strain Gu5 (CaCdr1p, CaCdr2p); assay: as above; assay type: cell-based; details: C. albicans Gu5 (CaCdr1p, CaCdr2p), fluconazole-resistant
Experimental: as §2

[20] = test system: Candida albicans strain 5674 (CaCdr1p, CaCdr2p); assay: as above; assay type: cell-based; details: C. albicans 5674 (CaCdr1p, CaCdr2p)
Experimental: as §2

[21] = test system: Candida albicans strain STY31; assay: as above; assay type: cell-based; details: C. albicans STY31, 5674 derivative, deletion of CDR1 and CDR2
Experimental: as §2

[22] = test system: Candida albicans strain STY7 (CaCdr1p); assay: as above; assay type: cell-based; details: C. albicans STY7 (CaCdr1p), 5674 derivative, deletion of CDR2
Experimental: as §2

CCRF-CEM cells = assay: cytotoxic activity against mammalian cells in tissue culture (MTT); assay type: cell-based, human
Experimental: (§4) All media contained 100 μg/ml of penicillin G and streptomycin. 24-wells microplates containing appropriate medium were inoculated with the cells in amount of 1.2×10^4 cells/well and allowed to stand overnight. Next, tested compounds as solution in dimethylsulfoxide (DMSO) were added in volume of 10 μl (serial 2× dilutions). To control well 10 μl of DMSO was added. Microplates with cell suspensions were incubated for 120 h at temperature 37° C. at atmosphere of 95%/5% CO2. After incubation, to all wells 200 μl of solution of 3-(4,5-dimethyltiazole-2-yl)-2,5-diphenylotetrazole bromide (MTT) in PBS (4 mg/ml) was added and plates were further incubated for 4 h at 37° C. Next, to dissolve crystals of formazane 1 ml of DMSO was added and absorption of solutions was measured at the wavelength λ=540 nm (A540), using a microplates reader (Victor^3, Perkin-Wallac). […] From these graphs IC50 values were read, that is concentration of tested compound in the presence at which A540 value is half of A540 value measured in the control sample.

HepG2 cells = assay: as above; assay type: cell-based, human
Experimental: as §4

LLC-PK1 cells = assay: as above; assay type: cell-based, pig
Experimental: as §4

Compound | Antifungal activity MIC [1] | Antifungal activity MIC [2] | Antifungal activity MIC (Candida krusei DSM 6128) | Antifungal activity MIC [3] | Antifungal activity MIC [4] | Antifungal activity IC50 [5] | Antifungal activity MIC [5] | Hemotoxi EH50 (Human erythrocytes) | Antifungal activity MIC [6] | Antifungal activity MIC (Candida albicans SC 5314) | Antifungal activity MIC (Candida arborea KKP 319) | Antifungal activity MIC [7] | Antifungal activity MIC [8] | Antifungal activity MIC [9] | Antifungal activity MIC [10] | Antifungal activity MIC [11] | Antifungal activity MIC [12] | Antifungal activity MIC [13] | Antifungal activity MIC [14] | Antifungal activity MIC [15] | other results
N-(4-N,N-diethylaminobenzyl)amphotericin B [Compound A19] | 1 µg/mL | 2 µg/mL | 2 µg/mL | 1 µg/mL | 1 µg/mL | 0.53 µg/mL | 1 µg/mL | >100 µg/mL | 1 µg/mL | 0.5 µg/mL | 2 µg/mL | 0.5 µg/mL | 2 µg/mL | 2 µg/mL | 0.5 µg/mL | 2 µg/mL | 1 µg/mL | 4 µg/mL | 1 µg/mL | 2 µg/mL | Antifungal activity MIC [16]: 2 µg/mL; Antifungal activity MIC [17]: 2 µg/mL; Antifungal activity MIC [18]: 1 µg/mL; Antifungal activity MIC [19]: 1 µg/mL; Antifungal activity MIC [20]: 1 µg/mL; Antifungal activity MIC [21]: 1 µg/mL; Antifungal activity MIC [22]: 1 µg/mL; IC50 (cytotoxic activity) (CCRF-CEM cells): >100 µg/mL; IC50 (cytotoxic activity) (HepG2 cells): >100 µg/mL; IC50 (cytotoxic activity) (LLC-PK1 cells): >100 µg/mL
N-(L-N,N-dimethylphenylalanyl)amphotericin B [Compound A43] | 4 µg/mL | 4 µg/mL | 4 µg/mL | 2 µg/mL | 4 µg/mL | 1.43 µg/mL | 4 µg/mL | >100 µg/mL | 1 µg/mL | 1 µg/mL | 8 µg/mL | 1 µg/mL | 1 µg/mL | 1 µg/mL | 2 µg/mL | 1 µg/mL | 1 µg/mL | 4 µg/mL | 0.5 µg/mL | 1 µg/mL | Antifungal activity MIC [16]: 4 µg/mL; Antifungal activity MIC [17]: 4 µg/mL; Antifungal activity MIC [18]: 1 µg/mL; Antifungal activity MIC [19]: 2 µg/mL; Antifungal activity MIC [20]: 1 µg/mL; Antifungal activity MIC [21]: 1 µg/mL; Antifungal activity MIC [22]: 0.5 µg/mL; IC50 (cytotoxic activity) (CCRF-CEM cells): >100 µg/mL; IC50 (cytotoxic activity) (HepG2 cells): >100 µg/mL; IC50 (cytotoxic activity) (LLC-PK1 cells): >100 µg/mL
C[C@@H]1[C@H](O)[C@@H](C)/C=C/C=C/C=C/C=C/C=C/C=C/C=C/[C@H](O[C@@H]2O[C@H](C)[C@@H](O)[C@H](NC(=O)[C@H](N)c3ccccc3)[C@@H]2O)C[C@@H]2O[C@](O)(C[C@@H](O)C[C@@H](O)[C@H](O)CC[C@@H](O)C[C@@H](O)CC(=O)O[C@H]1C)C[C@H](O)[C@H]2C(=O)O [Compound A41, N-D-phenylglycylamphotericin B] | 2 µg/mL | 4 µg/mL | 4 µg/mL | 2 µg/mL | 4 µg/mL | 1.46 µg/mL | 4 µg/mL | >100 µg/mL | 2 µg/mL | 1 µg/mL | 4 µg/mL | 1 µg/mL | 2 µg/mL | 2 µg/mL | 2 µg/mL | 1 µg/mL | 2 µg/mL | 4 µg/mL | 1 µg/mL | 1 µg/mL | Antifungal activity MIC [16]: 2 µg/mL; Antifungal activity MIC [17]: 4 µg/mL; Antifungal activity MIC [18]: 1 µg/mL; Antifungal activity MIC [19]: 1 µg/mL; Antifungal activity MIC [20]: 1 µg/mL; Antifungal activity MIC [21]: 1 µg/mL; Antifungal activity MIC [22]: 1 µg/mL; IC50 (cytotoxic activity) (CCRF-CEM cells): >100 µg/mL; IC50 (cytotoxic activity) (HepG2 cells): >100 µg/mL; IC50 (cytotoxic activity) (LLC-PK1 cells): >100 µg/mL
